Assay results as given in patent US11098040B2, “Compounds and methods of use” (Ferro Therapeutics, Inc., priority 2018, dated 2021).
Like-named read-outs stand apart in the source and are kept apart here. Each block holds one compound with its values, some of them ahead of it.

Assays:
[1] = PK profile, IV plasma concentration and PK parameters; type: in vivo; conditions: Balb/C nude, mouse
Procedure: The PK profiles of compounds 148, 149, 150, 156 and 169 are shown below. Compound 156 was formulated in 30% Kolliphor EL (Cremophor EL) in water and compounds 148, 149, 150 and 169 were formulated in 30% Kolliphore EL with 1% poloxamar 407 in water. All compounds were dosed at 5 mg/kg. Blood samples were collected at various time points and analyzed using the method described above.

786-O = assay: Cell proliferation (Alamar Blue) assay, 786-O renal cell carcinoma, with/without ferrostatin; type: cell-based; conditions: Homo sapiens, 786-0, Cell Line 786-O; read-out: IC50
Procedure, shortened: (§1)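 Cells seeded at 5000/well, 16-24 h, then exposed 24 h at 37° C to compound, 10-0.0005 μM in 3-fold dilutions, 1% DMSO final. Alamar Blue fluorescence (ex 540/em 590 nm) read after 1.5 h; IC50 from variable-slope sigmoidal fit.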

SJSA-1 = assay: Cell proliferation (Alamar Blue) assay, SJSA-1 osteosarcoma, with/without ferrostatin; type: cell-based, human; conditions: Homo sapiens, SJSA-1, Cell Line SJSA-1; read-out: IC50
Procedure, shortened: as §1

A549 = assay: Cell viability assay, A549 cells; type: cell-based; conditions: Homo sapiens, A549, Cell Line A549; read-out: IC50
Procedure: Example 5: Inducer Compound Effect on Growth of A549 and KP4 Cells
Cell viability assay was performed to assess the potency of the compounds in cancer cell line KP4 (pancreatic ductal adenocarcinoma). Cells at a density of 1,000-10,000 cells/well were seeded in 96-well plates and incubated at 37° C. overnight. A series of 9 different concentrations of compound stocks (500×) were created by 3-fold serial dilution in DMSO. These compounds were further diluted in culture media and then added to cells so that the final DMSO concentration was equal to 0.25% or less. After 96 hours of incubation, 50 μL of CellTiter Glo reagent (Promega) was added to each well and luminescence was measured after 10 minutes using EnVision (PerkinElmer). All compounds were tested initially from 30 μM as the top concentration in duplicates (range of 4.6 nM-30 μM). […] Luminescence from cells treated with DMSO alone was set as Max and % of inhibition was calculated as follows: Inhibition %=(Max-Sample value)/Max*100. Data was analyzed using XL-fit software (ID Business Solutions Ltd.). IC50, relative IC50, or % of top inhibition was calculated. […]

MiaPaCa-2 = assay: Cell viability assay (CellTiter Glo), pancreatic carcinoma MiaPaCa-2; type: cell-based; conditions: Homo sapiens
Procedure: (§2) Cell viability assay was performed to assess the potency of the compounds in human cancer cell lines KP4 (pancreatic ductal adenocarcinoma), MiaPaCa-2 (pancreatic carcinoma), AsPC-1 (pancreatic adenocarcinoma, ascites), 143B (osteosarcoma), and SJSA-1 (osteosarcoma). Selected compounds were also assayed in a human breast epithelial cell line MCF-10A, a nontumorigenic cell line as a control to assess differential activity. Cells at a density of 500-5,000 cells/well were seeded in 96-well plates and incubated at 37° C. overnight. A series of 9 different concentrations of compound stocks (500×) were created by 3-fold serial dilution in DMSO. These compounds were further diluted in culture media and then added to cells so that the final DMSO concentration was equal to 0.25% or less. After 96 hours of incubation, 50 μL of CellTiter Glo reagent (Promega) was added to each well and luminescence was measured after 10 minutes using EnVision (PerkinElmer). Compounds titrated from top concentration of up to 30 μM. The select compounds were tested initially from 30 μM as the top concentration in duplicates (range of 4.6 nM-30 μM). […] Luminescence from cells treated with DMSO alone was set as Max and % of inhibition was calculated as follows: Inhibition %=(Max-Sample value)/Max*100. Data was analyzed using XL-fit software (ID Business Solutions Ltd.). IC50, relative IC50, or % of top inhibition was calculated.
The results of the assay in the pancreatic cell lines are given in Table 15a for PANC1, Table 15b for MiaPaCa-2, and Table 15c for AsPC-1.

KP4 = assay: Cell viability assay (CellTiter Glo), pancreatic ductal adenocarcinoma KP4; type: cell-based, human; conditions: Homo sapiens
Procedure, shortened: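 KP4 cells seeded at 1,000–10,000 per well, treated 96 h with 9-point 3-fold dilutions from 30 μM top (4.6 nM–30 μM, duplicates; ≤0.25% DMSO). Viability by CellTiter Glo luminescence; % inhibition relative to DMSO-only wells, giving IC50, relative IC50 or % top inhibition.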

[2] = Whole blood stability, mouse; type: in vitro ADME
Description: (§3) The results of the assay on stability in blood and IC50 values for pancreatic cancer cell line KP4 are given below in Table 24.

[3] = Whole blood stability, human; type: in vitro ADME
Description: as §3

MCF-10A = assay: Cell viability assay (CellTiter Glo), non-tumorigenic breast epithelial cell line MCF-10A; type: cell-based; conditions: Homo sapiens, 96 hours
Procedure: as §2
Paclitaxel was used as the positive control for cytotoxicity.

[4] = iv, 5 mg/kg, 30% Kolliphore EL with 1% poloxamar 407 in water
[5] = iv, 5 mg/kg, 30% Kolliphor EL in water (Table 10b)
[6] = MIA PaCa-2, pancreatic carcinoma, 96 hours, CellTiter Glo, read-out: IC50 MiaPaCa-2
[7] = Cell Line Mia PaCa-2, read-out: IC50
[8] = KP-4, Cell Line KP4, read-out: IC50

- C0 [1, 4]: 3400 ng/mL
- Cmax [1, 4]: 2260 ng/mL
- clearance [1, 4]: 113 mL/min/kg
- AUC(0-t) ([1]; iv, 5 mg/kg, 30% Kolliphore EL with 1% poloxamar 407 in water, read-out: AUC0-t): 735 ng·h/mL
- AUC(0-inf) ([1]; iv, 5 mg/kg, 30% Kolliphore EL with 1% poloxamar 407 in water, read-out: AUC0-∞): 740 ng·h/mL
- Vd ([1]; iv, 5 mg/kg, 30% Kolliphore EL with 1% poloxamar 407 in water, read-out: Vd): 3.25 L/kg
- Vd ([1]; iv, 5 mg/kg, 30% Kolliphore EL with 1% poloxamar 407 in water, read-out: Vss): 1.64 L/kg
- half-life ([1]; iv, 5 mg/kg, 30% Kolliphore EL with 1% poloxamar 407 in water, time points considered 0.25-2 h): 19.8 min
- IC50 (786-O): 9 nM
- IC50 (SJSA-1): 8 nM
Structure (SMILES): C[C@H]1Cc2c([nH]c3ccccc23)[C@H](c2ccc(NC34CC5CC(CC(C5)C3)C4)cc2)N1C(=O)CCl [Compound 150, 1-((1S,3S)-1-(4-(((3R,5R,7R)-adamantan-1-yl)amino)phenyl)-3-methyl-1,3,4,9-tetrahydro-2H-pyrido[3,4-b]indol-2-yl)-2-chloroethan-1-one]

- concentration at 5 min ([1]; 5 mg/kg IV, BID q12, post 2nd dose, 5 min, 30% Kolliphor EL in water): 18500 ng/mL
- concentration at 0.25 h ([1]; 5 mg/kg IV, BID q12, post 2nd dose, 0.25 h, 30% Kolliphor EL in water): 4640 ng/mL
- concentration at 0.5 h ([1]; 5 mg/kg IV, BID q12, post 2nd dose, 0.5 h, 30% Kolliphor EL in water): 984 ng/mL
- concentration at 1 h ([1]; 5 mg/kg IV, BID q12, post 2nd dose, 1 h, 30% Kolliphor EL in water): 302 ng/mL
- concentration at 2 h ([1]; 5 mg/kg IV, BID q12, post 2nd dose, 2 h, 30% Kolliphor EL in water): 105 ng/mL
- concentration at 4 h ([1]; 5 mg/kg IV, BID q12, post 2nd dose, 4 h, 30% Kolliphor EL in water): 45.9 ng/mL
- concentration at 8 h ([1]; 5 mg/kg IV, BID q12, post 2nd dose, 8 h, 30% Kolliphor EL in water): 24.4 ng/mL
- C0 [1, 5]: 38200 ng/mL
- MRT inf [1, 5]: 33.2 min
- clearance [1, 5]: 14.5 mL/min/kg
- half-life [1, 5]: 180 min
- AUC(0-inf) ([1]; iv, 5 mg/kg, 30% Kolliphor EL in water (Table 10b), read-out: AUCInf): 5920 ng·h/mL
- AUC(0-t) ([1]; iv, 5 mg/kg, 30% Kolliphor EL in water (Table 10b), read-out: AUClast): 5810 ng·h/mL
- Vd ([1]; iv, 5 mg/kg, 30% Kolliphor EL in water (Table 10b), read-out: Vss): 0.48 L/kg
- Vd ([1]; iv, 5 mg/kg, 30% Kolliphor EL in water (Table 10b), read-out: Vz): 3.72 L/kg
- IC50 (A549): 4300 nM
- IC50 (786-O): 75.1 nM
- IC50 (SJSA-1): 42.2 nM
Structure (SMILES): C#CC(=O)N1[C@@H](CCCC)Cc2c([nH]c3c(F)cc(F)cc23)[C@@H]1c1ccc(F)cc1 [Compound 156]

- IC50 (MiaPaCa-2; [6]): 5570 nM
- IC50 (MiaPaCa-2; [7]): 5570 nM
- IC50 (KP4; [8]): 10.4 µM
- IC50 (A549): 6220 nM
Structure (SMILES): COC(=O)[C@H]1Cc2c([nH]c3ccccc23)[C@H](c2ccc(C(=O)OC(C)(C)C)cc2)N1C(=O)C(Cl)Cl [Compound 263]

- IC50 (MiaPaCa-2; [7]): 10 nM
- IC50 (KP4; [8]): 1.71 µM
- IC50 (A549): 3230 nM
Structure (SMILES): COC(=O)c1ccc([C@H]2c3[nH]c4ccccc4c3C[C@H](C(=O)OC)N2C(=O)/C=C/CN(C)C)cc1 [Compound 273]

- IC50 (MiaPaCa-2; [6]): 1320 nM
Structure (SMILES): COC(=O)[C@H]1Cc2c([nH]c3ccccc23)[C@H](c2ccc(C(=O)NCCN)cc2)N1C(=O)CCl [Example 15]

- IC50 (MiaPaCa-2; [6]): 3150 nM
Structure (SMILES): COC(=O)[C@H]1Cc2c([nH]c3ccccc23)[C@@H](c2ccc(S(=O)(=O)N(C)C)cc2)N1C(=O)CCl [Example 23a]

- IC50 (MiaPaCa-2; [6]): 858 nM
Structure (SMILES): COC(=O)[C@H]1Cc2c([nH]c3ccccc23)[C@H](c2ccc(C(=O)OC(C)(C)C)cc2)N1C(=O)/C=C/CCl [Example 25]

- IC50 (MiaPaCa-2; [6]): 3000 nM
- IC50 (KP4; KP-4, 96 h, pancreatic cancer cell line KP4, 96 hours, CellTiter Glo, read-out: IC50 μM KP4): 0.1 to 0.5 µM
- Whole Blood Stability % Remaining at 37° C. Mouse ([2]; 0 min): 100.0%
- Whole Blood Stability % Remaining at 37° C. Mouse ([2]; 30 min): 92.5%
- Whole Blood Stability % Remaining at 37° C. Mouse ([2]; 60 min): 81.1%
- Whole Blood Stability % Remaining at 37° C. Human ([3]; 0 min): 100.0%
- Whole Blood Stability % Remaining at 37° C. Human ([3]; 30 min): 54.1%
- Whole Blood Stability % Remaining at 37° C. Human ([3]; 60 min): 40.9%
Structure (SMILES): COC(=O)[C@H]1Cc2c([nH]c3ccccc23)[C@@H](c2ccc(C(=O)NCCN3CCOCC3)cc2)N1C(=O)CCl [Example 27a]

- IC50 (MiaPaCa-2; [6]): 3630 nM
Structure (SMILES): CN(C)C(=O)c1ccc([C@H]2c3[nH]c4ccccc4c3C[C@H](C(=O)N(C)C)N2C(=O)CCl)cc1 [Example 38]
- IC50 (MCF-10A): 19600 nM

- IC50 (MiaPaCa-2; [6]): 40 nM
Structure (SMILES): COC(=O)C1CCC([C@H]2c3[nH]c4ccccc4c3C[C@H](C(=O)N(C)C)N2C(=O)CCl)CC1 (some centres unmarked) [Example 41]
- IC50 (MCF-10A): 40 nM
